According to PubChem BioAssay AID248 (DTP/NCI, 2004):
Where “and” joins values, the source holds several entries; their conditions need not be identical. Identical values can stand only once. Toxic doses and inconclusive results are not listed. Cut-off read from the data, not from the text of the source: active = T/C of 150% or more; inactive = T/C below 125%.

Test system: L1210 leukemia ip in BDF1 mice, survival T/C
Experiment: NCI In Vivo Anticancer Drug Screen. Data for tumor model L1210 Leukemia (intraperitoneal) in B6D2F1 (BDF1) mice
Conditions: endpoint: mean survival time, higher = longer survival
Method in brief: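 Mice bearing the transplanted tumor received compound or vehicle. Survival of the treated group was divided by that of the vehicle-treated control group to give the ratio.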

[1] = dose: 100.0 mg/kg/injection, schedule: Q01DX009 (ip), vehicle: Klucel (hydroxypropylcellulose) (HPC)
[2] = dose: 200.0 mg/kg/injection, schedule: Q01DX009 (ip), vehicle: Klucel (hydroxypropylcellulose) (HPC)
[3] = dose: 400.0 mg/kg/injection, schedule: Q01DX009 (ip), vehicle: Klucel (hydroxypropylcellulose) (HPC)
[4] = dose: 100.0 mg/kg/injection, schedule: Q04DX003 (ip), vehicle: Klucel (hydroxypropylcellulose) (HPC)
[5] = dose: 200.0 mg/kg/injection, schedule: Q04DX003 (ip), vehicle: Klucel (hydroxypropylcellulose) (HPC)
[6] = dose: 400.0 mg/kg/injection, schedule: Q04DX003 (ip), vehicle: Klucel (hydroxypropylcellulose) (HPC)

Measured: T/C

CC1(C)N=C(N)N=C(N)N1c1ccc(OCCCCOc2ccc(S(=O)(=O)F)cc2)cc1
inactive: dose: 75.0 mg/kg/injection, schedule: Q01DX001 (ip), vehicle: Klucel (hydroxypropylcellulose) (HPC) 106 % of control | dose: 150.0 mg/kg/injection, schedule: Q01DX001 (ip), vehicle: Klucel (hydroxypropylcellulose) (HPC) 91 % of control | dose: 300.0 mg/kg/injection, schedule: Q01DX001 (ip), vehicle: Klucel (hydroxypropylcellulose) (HPC) 96 % of control

Cc1[nH]cnc1C(c1ccccc1)c1ccccc1
inactive: dose: 100.0 mg/kg/injection, schedule: Q01DX001 (ip), vehicle: saline with Tween-80 108 % of control | dose: 200.0 mg/kg/injection, schedule: Q01DX001 (ip), vehicle: saline with Tween-80 100 % of control

COc1cccc(/C=N\N=C\c2cccc(OC)c2OC)c1OC
inactive: dose: 50.0 mg/kg/injection, schedule: Q01DX009 (ip), vehicle: saline 120 % of control | dose: 200.0 mg/kg/injection, schedule: Q01DX009 (ip), vehicle: saline 110 % of control

C=C(CCCCCC/C=C\CCCCCCCC)C(=O)O
inactive: dose: 100.0 mg/kg/injection, schedule: Q04DX002 (sc), vehicle: olive oil, sesame oil, peanut oil 103 % of control | dose: 200.0 mg/kg/injection, schedule: Q04DX002 (sc), vehicle: olive oil, sesame oil, peanut oil 103 % of control | dose: 400.0 mg/kg/injection, schedule: Q04DX002 (sc), vehicle: olive oil, sesame oil, peanut oil 103 % of control

CN1CCCN(C(=S)S)CC1
inactive: dose: 30.0 mg/kg/injection, schedule: Q01DX001 (ip), vehicle: saline 96 % of control | dose: 100.0 mg/kg/injection, schedule: Q01DX001 (ip), vehicle: saline 95 % of control

O=C(O)c1cc(N=C2C=CC(=C(c3ccccc3)c3ccc(Nc4ccc(Cl)c(C(=O)O)c4)cc3)C=C2)ccc1Cl
inactive: dose: 100.0 mg/kg/injection, schedule: Q01DX001 (ip), vehicle: other 97 % of control | [1] 105 % of control | dose: 200.0 mg/kg/injection, schedule: Q01DX001 (ip), vehicle: other 100 % of control | [2] 97 % of control | dose: 400.0 mg/kg/injection, schedule: Q01DX001 (ip), vehicle: other 103 % of control

FC(F)(F)c1ccc2c(c1)N(CCCN1CCN(CCN3CCCCC3)CC1)c1ccccc1S2
inactive: dose: 12.5 mg/kg/injection, schedule: Q01DX009 (ip), vehicle: saline 93 % of control | dose: 12.5 mg/kg/injection, schedule: Q04DX003 (ip), vehicle: saline 94 % of control | dose: 25.0 mg/kg/injection, schedule: Q01DX009 (ip), vehicle: saline 86 % of control | dose: 25.0 mg/kg/injection, schedule: Q04DX003 (ip), vehicle: saline 96 % of control | dose: 50.0 mg/kg/injection, schedule: Q04DX003 (ip), vehicle: saline 92 % of control

O=C(/C=C/c1ccccc1)N(Cc1ccccc1)c1ccccc1
inactive: [1] 97 % of control | [2] 101 % of control | [3] 103 % of control

CCOC(=O)COc1ccc([N+](=O)[O-])cc1
inactive: dose: 100.0 mg/kg/injection, schedule: Q01DX001 (ip), vehicle: Klucel (hydroxypropylcellulose) (HPC) 112 % of control | [1] 97 % of control and 98 % of control | dose: 100.0 mg/kg/injection, schedule: Q04DX002 (ip), vehicle: Klucel (hydroxypropylcellulose) (HPC) 96 % of control and 101 % of control | [4] 106 % of control | dose: 200.0 mg/kg/injection, schedule: Q01DX001 (ip), vehicle: Klucel (hydroxypropylcellulose) (HPC) 98 % of control | [2] 95 % of control and 105 % of control | dose: 200.0 mg/kg/injection, schedule: Q04DX002 (ip), vehicle: Klucel (hydroxypropylcellulose) (HPC) 96 % of control and 103 % of control | [5] 100 % of control | dose: 400.0 mg/kg/injection, schedule: Q01DX001 (ip), vehicle: Klucel (hydroxypropylcellulose) (HPC) 106 % of control | [3] 93 % of control and 101 % of control | dose: 400.0 mg/kg/injection, schedule: Q04DX002 (ip), vehicle: Klucel (hydroxypropylcellulose) (HPC) 92 % of control and 102 % of control | [6] 101 % of control

Nc1nc2c(ncn2CCC(N)C(=O)O)c(=O)[nH]1 (stereo unspecified)
inactive: dose: 100.0 mg/kg/injection, schedule: Q04DX003 (ip), vehicle: saline 104 % of control | dose: 200.0 mg/kg/injection, schedule: Q04DX003 (ip), vehicle: saline 98 % of control | dose: 400.0 mg/kg/injection, schedule: Q04DX003 (ip), vehicle: saline 107 % of control

CC(C#N)CC12CCCCC1CC/C(=C\c1ccccc1)C2 (stereo unspecified)
inactive: [4] 92 % of control | [5] 94 % of control | [6] 94 % of control

COc1ccc(C2C3CCC(C3)C2N)cc1 (stereo unspecified)
inactive: dose: 5.0 mg/kg/injection, schedule: Q04DX003 (ip), vehicle: saline 100 % of control | dose: 10.0 mg/kg/injection, schedule: Q01DX009 (ip), vehicle: saline with Tween-80 93 % of control | dose: 10.0 mg/kg/injection, schedule: Q04DX003 (ip), vehicle: saline 100 % of control and 97 % of control | dose: 20.0 mg/kg/injection, schedule: Q01DX009 (ip), vehicle: saline with Tween-80 91 % of control | dose: 20.0 mg/kg/injection, schedule: Q04DX003 (ip), vehicle: saline 97 % of control | dose: 25.0 mg/kg/injection, schedule: Q01DX009 (ip), vehicle: saline with Tween-80 90 % of control | dose: 40.0 mg/kg/injection, schedule: Q04DX003 (ip), vehicle: saline 96 % of control | dose: 50.0 mg/kg/injection, schedule: Q01DX009 (ip), vehicle: saline with Tween-80 95 % of control | dose: 100.0 mg/kg/injection, schedule: Q01DX009 (ip), vehicle: saline with Tween-80 88 % of control | dose: 100.0 mg/kg/injection, schedule: Q04DX003 (ip), vehicle: saline with Tween-80 100 % of control

O=C(Nc1ccccc1)Oc1ccc(OC(=O)Nc2ccccc2)c(Cl)c1
inactive: dose: 100.0 mg/kg/injection, schedule: Q04DX002 (ip), vehicle: saline + alcohol 92 % of control | dose: 200.0 mg/kg/injection, schedule: Q04DX002 (ip), vehicle: saline + alcohol 92 % of control

O=S1(=O)CCCCC1C(O)(c1ccccc1)c1ccccc1 (stereo unspecified)
inactive: dose: 12.5 mg/kg/injection, schedule: Q04DX002 (ip), vehicle: saline with Tween-80 97 % of control | dose: 25.0 mg/kg/injection, schedule: Q04DX002 (ip), vehicle: saline with Tween-80 102 % of control | dose: 50.0 mg/kg/injection, schedule: Q04DX002 (ip), vehicle: saline with Tween-80 94 % of control

C=CC(COC(C)=O)N1CC1 (stereo unspecified)
inactive: dose: 1.0 mg/kg/injection, schedule: Q01DX Z (ip), vehicle: carboxymethylcellulose (CMC) 100 % of control | dose: 2.0 mg/kg/injection, schedule: Q01DX Z (ip), vehicle: carboxymethylcellulose (CMC) 92 % of control | dose: 4.0 mg/kg/injection, schedule: Q01DX Z (ip), vehicle: carboxymethylcellulose (CMC) 104 % of control | dose: 5.0 mg/kg/injection, schedule: Q01DX Z (oral), vehicle: saline 101 % of control | dose: 7.5 mg/kg/injection, schedule: Q01DX Z (ip), vehicle: saline 104 % of control | dose: 7.5 mg/kg/injection, schedule: Q01DX Z (oral), vehicle: saline 104 % of control | dose: 8.0 mg/kg/injection, schedule: Q01DX Z (ip), vehicle: carboxymethylcellulose (CMC) 101 % of control | dose: 10.0 mg/kg/injection, schedule: Q01DX Z (oral), vehicle: saline 104 % of control | dose: 12.0 mg/kg/injection, schedule: Q01DX Z (ip), vehicle: carboxymethylcellulose (CMC) 110 % of control | dose: 15.0 mg/kg/injection, schedule: Q01DX Z (ip), vehicle: saline 121 % of control | dose: 15.0 mg/kg/injection, schedule: Q01DX Z (oral), vehicle: saline 105 % of control | dose: 20.0 mg/kg/injection, schedule: Q01DX Z (oral), vehicle: saline 114 % of control | dose: 25.0 mg/kg/injection, schedule: Q01DX Z (ip), vehicle: carboxymethylcellulose (CMC) 96 % of control | dose: 30.0 mg/kg/injection, schedule: Q01DX Z (ip), vehicle: saline 97 % of control | dose: 40.0 mg/kg/injection, schedule: Q01DX Z (oral), vehicle: saline 116 % of control | dose: 60.0 mg/kg/injection, schedule: Q01DX Z (oral), vehicle: saline 100 % of control

CNc1ccc(N=Nc2ccc3ncccc3c2)cc1
inactive: dose: 3.8 mg/kg/injection, schedule: Q01DX009 (ip), vehicle: saline 98 % of control | dose: 6.7 mg/kg/injection, schedule: Q01DX Z (ip), vehicle: carboxymethylcellulose (CMC) 98 % of control | dose: 7.5 mg/kg/injection, schedule: Q01DX009 (ip), vehicle: saline 102 % of control | dose: 10.0 mg/kg/injection, schedule: Q01DX Z (ip), vehicle: carboxymethylcellulose (CMC) 92 % of control | dose: 15.0 mg/kg/injection, schedule: Q01DX009 (ip), vehicle: saline 98 % of control | dose: 15.0 mg/kg/injection, schedule: Q01DX Z (ip), vehicle: carboxymethylcellulose (CMC) 92 % of control | dose: 30.0 mg/kg/injection, schedule: Q01DX009 (ip), vehicle: saline 89 % of control
